Consider 17 compounds from patent US20230406840A1, “N-(2-(3-CYANO-2-AZABICYCLO[3.1.0]HEXAN-2-YL)-2-OXOETHYL)QUINOLINE-4-CARBOXAMIDES” (AstraZeneca AB, priority 2022, published 2023).

Each structure is given as a SMILES string. Values after ≈ are worked out from the molar mass of the structure shown. Read-outs that look alike come from different tables or passages of the source.

Series [1] concerns the target Prolyl Oligopeptidase (hPREP) (Homo sapiens (Human), UniProt P48147). Put plainly: hPREP inhibition assay. Type of series: biochemical. To be noted: hPREP 0.6 nM, Z-Gly-Pro-amino-methylcoumarin 50 μM; read-out: PREP IC50. As for the experimental part:
Compounds were tested in a biochemical inhibition assay using Prolyl endopeptidase, Prolyl Oligopeptidase (hPREP) enzyme at 0.6 nM FAC (R&D Systems, 4308-SE) and the substrate Z-Gly-Pro-amino-methylcoumarin (Bachem, I-1145) at 50 μM FAC. 384 Low volume black plates (Greiner #784076) were used. […] 4 μL, 100 μM substrate solution (25 mM Tris HCl, 250 mM NaCl, 0.01% Triton X-100, 5 mM Glutathione, pH 7.5) was added to each well. Plates were centrifuged at 1000 rpm and incubated for 20 min at rt in dark. […] Data were analyzed in Genedata Screener®.

The target of series [2] is human Fibroblast activation protein alpha (hFAP) (Homo sapiens (Human), UniProt Q12884). Put plainly: hFAP inhibition assay (tight binders). Type of series: biochemical. The conditions noted are these: tight-binder format, Ala-Pro-AMC 20 μM, 2.5 h incubation; n = 1 or geometric mean (n = 5-10). As for the experimental part: Data were analyzed in Genedata Screener®.
Series [3] can be described thus: Metabolic stability in human liver microsomes (HLM). Type of series: in vitro ADME. As for the experimental part: Metabolic stability in HLM was measured as described in J Comput Aided Mol Des 2015, 29, 795.
In general terms: Liver microsomes are vesicles of endoplasmic reticulum, rich in cytochrome P450 enzymes.

The next series deals with Rat Hepatocytes (rHep). Nature of the series: Metabolic stability in rat hepatocytes (rHep). Type of series: in vitro ADME. As for the experimental part:
Metabolic stability in rat hepatocytes was measured as described in J Comput Aided Mol Des 2015, 29, 795.

The test system of another series is Human Hepatocytes (hHep). Put plainly: Metabolic stability in human hepatocytes (hHep). Type of series: in vitro ADME. As for the experimental part:
Metabolic stability in human hepatocytes was measured as described in Xenobiotica 2010, 40, 637.

A further series is described as follows: Kinetic solubility. Type of series: physicochemical. As for the experimental part:
Kinetic solubility was measured as described in Comput Aided Mol Des 2015, 29, 795.

Another series deals with hFAP (Homo sapiens (Human), UniProt Q12884).
Sequence of hFAP (Q12884 38-760): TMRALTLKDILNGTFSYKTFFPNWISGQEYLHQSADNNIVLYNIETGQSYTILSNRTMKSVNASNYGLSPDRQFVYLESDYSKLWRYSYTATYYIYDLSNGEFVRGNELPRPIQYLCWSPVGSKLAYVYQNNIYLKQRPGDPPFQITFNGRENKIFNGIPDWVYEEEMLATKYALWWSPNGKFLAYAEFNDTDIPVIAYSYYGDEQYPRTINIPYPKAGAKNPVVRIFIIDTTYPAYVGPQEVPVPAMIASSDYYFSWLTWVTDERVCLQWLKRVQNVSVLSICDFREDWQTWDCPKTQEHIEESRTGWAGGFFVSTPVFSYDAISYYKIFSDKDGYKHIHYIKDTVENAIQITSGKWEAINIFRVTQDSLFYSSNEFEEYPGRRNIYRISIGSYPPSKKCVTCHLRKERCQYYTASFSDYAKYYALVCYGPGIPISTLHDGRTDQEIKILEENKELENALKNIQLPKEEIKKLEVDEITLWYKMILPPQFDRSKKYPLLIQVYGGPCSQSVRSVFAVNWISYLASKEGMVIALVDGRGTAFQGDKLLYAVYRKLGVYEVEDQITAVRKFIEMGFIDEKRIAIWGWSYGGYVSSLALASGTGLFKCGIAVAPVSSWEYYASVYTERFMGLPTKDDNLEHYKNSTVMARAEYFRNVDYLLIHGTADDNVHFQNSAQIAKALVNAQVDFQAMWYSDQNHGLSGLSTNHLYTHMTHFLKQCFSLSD

Sequence of human Fibroblast activation protein alpha (hFAP) (Q12884 38-760): as above
Sequence of Prolyl Oligopeptidase (hPREP) (P48147 whole entry): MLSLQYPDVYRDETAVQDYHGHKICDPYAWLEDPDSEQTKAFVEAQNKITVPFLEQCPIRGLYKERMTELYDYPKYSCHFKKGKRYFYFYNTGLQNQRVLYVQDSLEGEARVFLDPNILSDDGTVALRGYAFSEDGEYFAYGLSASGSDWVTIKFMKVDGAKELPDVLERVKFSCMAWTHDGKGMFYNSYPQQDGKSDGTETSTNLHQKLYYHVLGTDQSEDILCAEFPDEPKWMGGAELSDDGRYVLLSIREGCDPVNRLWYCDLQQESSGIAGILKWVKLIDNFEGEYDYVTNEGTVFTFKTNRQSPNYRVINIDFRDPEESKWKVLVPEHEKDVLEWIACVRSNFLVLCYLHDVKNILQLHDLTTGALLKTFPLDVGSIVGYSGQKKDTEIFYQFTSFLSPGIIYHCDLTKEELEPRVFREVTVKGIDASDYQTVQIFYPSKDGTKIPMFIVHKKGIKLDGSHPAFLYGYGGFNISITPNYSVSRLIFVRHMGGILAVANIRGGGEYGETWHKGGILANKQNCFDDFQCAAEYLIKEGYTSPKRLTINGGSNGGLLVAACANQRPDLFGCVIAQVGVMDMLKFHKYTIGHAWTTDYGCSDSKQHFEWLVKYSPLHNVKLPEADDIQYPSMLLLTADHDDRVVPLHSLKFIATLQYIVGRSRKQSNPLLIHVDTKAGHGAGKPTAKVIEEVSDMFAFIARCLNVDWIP

A word on the IC50: it is the point on the concentration scale where inhibition reaches its midpoint. For the compound `N#C[C@@H]1CSCN1C(=O)CNC(=O)c1ccnc2ccccc12` [Reference Compound C, (R)-N-(2-(4-cyanothiazolidin-3-yl)-2-oxoethyl)-quinoline-4-carboxamide, reference compound], the IC50 in series [1] is 7.1 nM.

In general, microsomal CLint refers to a measure of how fast metabolising enzymes remove a compound, apart from limits set by blood flow. Higher therefore signals rapid turnover. What is called solubility is the dissolved amount per volume that the medium holds. A lower solubility goes with a poorly soluble substance. Turning to `CC(C)(O)c1ccc2nccc(C(=O)NCC(=O)N3[C@H](C#N)C[C@@H]4C[C@@H]43)c2c1` [Example 13, N-(2-((1S,3S,5S)-3-Cyano-2-azabicyclo[3.1.0]hexan-2-yl)-2-oxoethyl)-6-(2-hydroxypropan-2-yl)quinoline-4-carboxamide], the IC50 in series [2] is 0.86 nM; in series [1], more than 50000 nM; on hFAP, 3.8 nM. In series [3], this compound displayed a microsomal CLint of less than 3 µL/min/mg. For the same compound, in the series on Rat Hepatocytes (rHep), the “rHeps CLint” value was 2 μL/min/1E6. Besides, the “hHep CLint” value with Human Hepatocytes (hHep) was less than 1 μL/min/1E6. Moreover, the solubility in “Kinetic solubility” (kinetic from dmso stock) was more than 1000 µM.

As for `CC(O)c1ccc2c(C(=O)NCC(=O)N3[C@H](C#N)C[C@@H]4C[C@@H]43)ccnc2c1` (stereo partly drawn) [Example 25, N-(2-((1S,3S,5S)-3-Cyano-2-azabicyclo[3.1.0]hexan-2-yl)-2-oxoethyl)-7-(1-hydroxyethyl)quinoline-4-carboxamide], the IC50 is 0.37 nM in series [2], more than 50000 nM in series [1] and less than 1.8 nM against hFAP. Further, the intrinsic metabolic clearance (microsomal CLint) in series [3] is less than 3 µL/min/mg. Besides, the “rHeps CLint” value with Rat Hepatocytes (rHep) is on record as less than 1 μL/min/1E6. In the series “Kinetic solubility” (kinetic from dmso stock), this compound displayed a solubility of 960 µM (≈ 350 µg/mL).

Take `Cc1cc(C(=O)NCC(=O)N2[C@H](C#N)C[C@@H]3C[C@@H]32)c2cc(I)ccc2n1` [Example 7, N-(2-((1S,3S,5S)-3-Cyano-2-azabicyclo[3.1.0]hexan-2-yl)-2-oxoethyl)-6-iodo-2-methylquinoline-4-carboxamide]: the IC50 in series [2] was 15 nM; in series [1] it was 18000 nM; against hFAP it was 53 nM. This compound also displayed an intrinsic clearance (microsomal CLint) in series [3] of 43 µL/min/mg. For the same compound, the “rHeps CLint” value with Rat Hepatocytes (rHep) is 12 μL/min/1E6. The solubility in the series “Kinetic solubility” (kinetic from dmso stock) is 23 µM (≈ 10.6 µg/mL).

On to `Cc1ccc2nc(C)cc(C(=O)NCC(=O)N3[C@H](C#N)C[C@@H]4C[C@@H]43)c2c1` [Example 19, N-(2-((1S,3S,5S)-3-Cyano-2-azabicyclo[3.1.0]hexan-2-yl)-2-oxoethyl)-2,6-dimethylquinoline-4-carboxamide], for which the IC50 in series [2] was found to be 33 nM; in series [1], 43000 nM; against hFAP, 80 nM. The compound also returned a microsomal CLint in series [3] of 12 µL/min/mg. Also, in the series on Rat Hepatocytes (rHep), the “rHeps CLint” value is less than 1 μL/min/1E6. The compound further gave a solubility in “Kinetic solubility” (kinetic from dmso stock) of more than 1000 µM.

Take `CCc1ccc2nc(C)cc(C(=O)NCC(=O)N3[C@H](C#N)C[C@@H]4C[C@@H]43)c2c1` [Example 18, N-(2-((1S,3S,5S)-3-Cyano-2-azabicyclo[3.1.0]hexan-2-yl)-2-oxoethyl)-6-ethyl-2-methylquinoline-4-carboxamide]: the values for the IC50 (in series [2]; in series [1]; on hFAP) were 25 nM, more than 50000 nM and 80 nM, respectively. Besides, in series [3], the microsomal CLint is 120 µL/min/mg. Also, the “rHeps CLint” value in the series with Rat Hepatocytes (rHep) came to 18 μL/min/1E6. The same compound displayed a solubility in “Kinetic solubility” (kinetic from dmso stock) of 800 µM (≈ 290 µg/mL).

For the compound `N#C[C@@H]1C[C@@H]2C[C@@H]2N1C(=O)CNC(=O)c1ccnc2ccc(C3CC3)cc12` [Example 42, N-(2-((1S,3S,5S)-3-Cyano-2-azabicyclo[3.1.0]hexan-2-yl)-2-oxoethyl)-6-cyclopropylquinoline-4-carboxamide], at hFAP, 5.6 nM corresponded to half-maximal inhibition (IC50).

With `Cc1cc(C(=O)NCC(=O)N2[C@H](C#N)C[C@@H]3C[C@@H]32)c2cc(Br)ccc2n1` [Example 6, 6-Bromo-N-(2-((1S,3S,5S)-3-cyano-2-azabicyclo[3.1.0]hexan-2-yl)-2-oxoethyl)-2-methylquinoline-4-carboxamide], the IC50 in series [2] was found to be 18 nM; in series [1], 13000 nM; at hFAP, 58 nM. In addition, the microsomal CLint in series [3] came to 23 µL/min/mg. The “rHeps CLint” value with Rat Hepatocytes (rHep) was determined as 5.8 μL/min/1E6. The compound further displayed a solubility in the series “Kinetic solubility” (kinetic from dmso stock) of 61 µM (≈ 25.2 µg/mL).

Consider `CCOC1(c2ccc3c(C(=O)NCC(=O)N4[C@H](C#N)C[C@@H]5C[C@@H]54)ccnc3c2)CC1` [Example 39, N-(2-((1S,3S,5S)-3-Cyano-2-azabicyclo[3.1.0]hexan-2-yl)-2-oxoethyl)-7-(1-ethoxycyclopropyl)quinoline-4-carboxamide], for which the values for the IC50 (in series [2]; in series [1]; on hFAP) were 0.41 nM, more than 50000 nM and 1.5 nM, respectively. This compound had a microsomal CLint in series [3] of 77 µL/min/mg. In the series with Rat Hepatocytes (rHep), the “rHeps CLint” value came out at 13 μL/min/1E6. Moreover, in the series “Kinetic solubility” (kinetic from dmso stock), the concentration in solution (solubility) was 960 µM (≈ 388 µg/mL).

`N#C[C@@H]1C[C@@H]2C[C@@H]2N1C(=O)CNC(=O)c1ccnc2ccc(OCC(F)(F)F)cc12` [Example 33, N-(2-((1S,3S,5S)-3-Cyano-2-azabicyclo[3.1.0]hexan-2-yl)-2-oxoethyl)-6-(2,2,2-trifluoroethoxy)quinoline-4-carboxamide] showed an intrinsic clearance (microsomal CLint) in series [3] of 170 µL/min/mg. Moreover, the “rHeps CLint” value in the series on Rat Hepatocytes (rHep) is 9.8 μL/min/1E6. For the same compound, in the series with Human Hepatocytes (hHep), the “hHep CLint” value is given as 25 μL/min/1E6. The compound further registered a solubility in the series “Kinetic solubility” (kinetic from dmso stock) of 700 µM (≈ 293 µg/mL). This compound gave an IC50 on hFAP of 1.4 nM.

As for `N#C[C@@H]1C[C@@H]2C[C@@H]2N1C(=O)CNC(=O)c1ccnc2cc(C3CC3)ccc12` [Example 47, N-(2-((1S,3S,5S)-3-Cyano-2-azabicyclo[3.1.0]hexan-2-yl)-2-oxoethyl)-7-cyclopropylquinoline-4-carboxamide], the solubility in the series “Kinetic solubility” was determined as 590 µM (≈ 213 µg/mL).

For `Cc1cc(C(=O)NCC(=O)N2[C@H](C#N)C[C@@H]3C[C@@H]32)c2cc(Cl)ccc2n1` [Example 5, 6-Chloro-N-(2-((1S,3S,5S)-3-cyano-2-azabicyclo[3.1.0]hexan-2-yl)-2-oxoethyl)-2-methylquinoline-4-carboxamide], the figures for the IC50 (in series [2]; in series [1]; against hFAP) were 18 nM, 18000 nM and 65 nM, respectively. In series [3], the microsomal CLint came to 11 µL/min/mg. The “rHeps CLint” value in the series with Rat Hepatocytes (rHep) is given as 2.8 μL/min/1E6. This compound also showed a solubility in the series “Kinetic solubility” (kinetic from dmso stock) of 140 µM (≈ 51.6 µg/mL).

Turning to `CC1(c2ccc3c(C(=O)NCC(=O)N4[C@H](C#N)C[C@@H]5C[C@@H]54)ccnc3c2)CC1` [Example 32, N-(2-((1S,3S,5S)-3-Cyano-2-azabicyclo[3.1.0]hexan-2-yl)-2-oxoethyl)-7-(1-methylcyclopropyl)quinoline-4-carboxamide], the IC50 in series [1] is more than 50000 nM; on hFAP it was 2 nM. In series [3], this compound had an intrinsic clearance (microsomal CLint) of 46 µL/min/mg. The “rHeps CLint” value in the series with Rat Hepatocytes (rHep) is on record as 72 μL/min/1E6. The same compound came in with a solubility in “Kinetic solubility” (kinetic from dmso stock) of 37 µM (≈ 13.9 µg/mL).

Take `CC(C)(O)c1ccc2c(C(=O)NCC(=O)N3[C@H](C#N)C[C@@H]4C[C@@H]43)ccnc2c1` [Example 26, N-(2-((1S,3S,5S)-3-Cyano-2-azabicyclo[3.1.0]hexan-2-yl)-2-oxoethyl)-7-(2-hydroxypropan-2-yl)quinoline-4-carboxamide]: the IC50 is 0.7 nM in series [2], more than 50000 nM in series [1] and 2.1 nM against hFAP. In series [3], this compound displayed a microsomal CLint of less than 3 µL/min/mg. Moreover, the “rHeps CLint” value in the series with Rat Hepatocytes (rHep) is given as less than 1 μL/min/1E6. Moreover, the solubility in the series “Kinetic solubility” (kinetic from dmso stock) is more than 1000 µM.

For `CC(OC(F)(F)F)c1ccc2c(C(=O)NCC(=O)N3[C@H](C#N)C[C@@H]4C[C@@H]43)ccnc2c1` (stereo partly drawn) [Example 30, N-(2-((1S,3S,5S)-3-Cyano-2-azabicyclo[3.1.0]hexan-2-yl)-2-oxoethyl)-7-(1-(trifluoromethoxy)ethyl)quinoline-4-carboxamide], the values for the IC50 (in series [2]; in series [1]; on hFAP) were 0.41 nM, more than 50000 nM and 3.1 nM, respectively. The compound further displayed a microsomal CLint in series [3] of 42 µL/min/mg. Further, in the series with Rat Hepatocytes (rHep), the “rHeps CLint” value was 16 μL/min/1E6. Further, the solubility in the series “Kinetic solubility” (kinetic from dmso stock) came out at 200 µM (≈ 86.5 µg/mL).

Consider `CC(O)c1ccc2nccc(C(=O)NCC(=O)N3[C@H](C#N)C[C@@H]4C[C@@H]43)c2c1` (stereo partly drawn) [Example 14, N-(2-((1S,3S,5S)-3-Cyano-2-azabicyclo[3.1.0]hexan-2-yl)-2-oxoethyl)-6-(1-hydroxyethyl)quinoline-4-carboxamide], for which the IC50 in series [2] is 0.91 nM; in series [1], more than 50000 nM; at hFAP, 2.6 nM. In series [3], this compound gave a microsomal CLint of less than 3 µL/min/mg. Further, the “rHeps CLint” value in the series on Rat Hepatocytes (rHep) is less than 1 μL/min/1E6. Besides, the solubility in “Kinetic solubility” (kinetic from dmso stock) was more than 1000 µM.

Turning to `N#C[C@@H]1C[C@@H]2C[C@@H]2N1C(=O)CNC(=O)c1ccnc2ccc(OC3CCC(F)(F)CC3)cc12` [Example 38, N-(2-((1S,3S,5S)-3-Cyano-2-azabicyclo[3.1.0]hexan-2-yl)-2-oxoethyl)-6-((4,4-difluorocyclohexyl)oxy)quinoline-4-carboxamide], the results for the IC50 (in series [1]; against hFAP) were more than 50000 nM and 1.3 nM, respectively. In series [3], this compound had an intrinsic clearance (microsomal CLint) of 190 µL/min/mg. For the same compound, the “rHeps CLint” value in the series on Rat Hepatocytes (rHep) is recorded as 55 μL/min/1E6. In addition, the solubility in the series “Kinetic solubility” (kinetic from dmso stock) worked out at 430 µM (≈ 195 µg/mL).
